# Assay results reported in paper PMC9736855, “Discovery of 3-Amino-1H-pyrazole-Based Kinase Inhibitors to Illuminate the Understudied PCTAIRE Family” (International Journal of Molecular Sciences, 2022).
# Columns and labels:
# Assay in all cases: DSF
# Assay type in all cases: binding
# [1] = target: T1, GAK (Homo sapiens, UniProt O14976)
# T1 construct: purchased in-house DSF panel (SGC Frankfurt)
# T1 sequence (O14976 14-351): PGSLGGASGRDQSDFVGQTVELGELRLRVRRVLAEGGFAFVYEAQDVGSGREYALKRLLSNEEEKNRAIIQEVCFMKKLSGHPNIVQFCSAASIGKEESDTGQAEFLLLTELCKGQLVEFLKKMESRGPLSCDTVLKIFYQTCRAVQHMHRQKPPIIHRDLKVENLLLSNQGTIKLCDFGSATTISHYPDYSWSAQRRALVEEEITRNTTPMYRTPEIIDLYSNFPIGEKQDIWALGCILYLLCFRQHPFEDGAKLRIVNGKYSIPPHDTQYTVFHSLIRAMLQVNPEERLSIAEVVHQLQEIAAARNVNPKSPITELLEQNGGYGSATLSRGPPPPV
# Procedure: (§1) Recombinant protein kinase domains with a concentration of 2 μM were mixed with a 10 μM compound solution in DMSO, 20 mM HEPES, pH 7.5, and 500 mM NaCl. SYPRO Orange (5000×, Invitrogen) was added as a fluorescence probe (1 µl per mL). Subsequently, temperature-dependent protein unfolding profiles were measured, using the QuantStudio™ 5 realtime PCR machine (Thermo Fisher, Waltham, MA, USA). […] The temperature was raised with a step rate of 3 °C per minute. Data points were analyzed with the internal software (Thermal Shift SoftwareTM Version 1.4, Thermo Fisher) using the Boltzmann equation to determine the inflection point of the transition curve. Differences in melting temperature are given as ΔTm values in °C. Measurements were performed in duplicates.
# [2] = target: T2, CAMK1G (Homo sapiens, UniProt Q96NX5)
# T2 construct: purchased in-house DSF panel (SGC Frankfurt)
# T2 sequence (Q96NX5 whole entry): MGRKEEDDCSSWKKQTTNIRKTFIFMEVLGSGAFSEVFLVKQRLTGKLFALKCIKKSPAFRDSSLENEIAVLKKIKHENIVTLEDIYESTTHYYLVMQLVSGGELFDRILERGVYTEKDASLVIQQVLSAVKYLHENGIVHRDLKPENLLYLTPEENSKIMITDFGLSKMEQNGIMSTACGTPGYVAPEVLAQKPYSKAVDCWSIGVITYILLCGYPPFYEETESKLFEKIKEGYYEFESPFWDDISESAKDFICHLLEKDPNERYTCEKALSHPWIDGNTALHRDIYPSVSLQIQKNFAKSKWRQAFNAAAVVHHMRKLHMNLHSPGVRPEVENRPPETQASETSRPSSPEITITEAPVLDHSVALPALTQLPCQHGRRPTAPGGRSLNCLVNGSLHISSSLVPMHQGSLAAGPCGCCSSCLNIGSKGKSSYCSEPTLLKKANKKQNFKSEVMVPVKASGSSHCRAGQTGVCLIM
# Procedure: as §1
# [3] = target: T3, PHKG2 (Homo sapiens, UniProt P15735)
# T3 construct: purchased in-house DSF panel (SGC Frankfurt)
# T3 sequence (P15735 6-293): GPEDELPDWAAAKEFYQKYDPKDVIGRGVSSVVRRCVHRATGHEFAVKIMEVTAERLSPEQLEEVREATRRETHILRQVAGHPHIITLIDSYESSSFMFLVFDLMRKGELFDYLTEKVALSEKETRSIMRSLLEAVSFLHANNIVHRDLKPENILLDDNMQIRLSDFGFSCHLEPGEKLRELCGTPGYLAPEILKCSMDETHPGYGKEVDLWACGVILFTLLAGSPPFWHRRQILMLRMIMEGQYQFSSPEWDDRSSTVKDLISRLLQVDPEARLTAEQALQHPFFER
# Procedure: as §1
# [4] = target: T4, PDK4 (Homo sapiens, UniProt Q16654)
# T4 construct: purchased in-house DSF panel (SGC Frankfurt)
# T4 sequence (Q16654 whole entry): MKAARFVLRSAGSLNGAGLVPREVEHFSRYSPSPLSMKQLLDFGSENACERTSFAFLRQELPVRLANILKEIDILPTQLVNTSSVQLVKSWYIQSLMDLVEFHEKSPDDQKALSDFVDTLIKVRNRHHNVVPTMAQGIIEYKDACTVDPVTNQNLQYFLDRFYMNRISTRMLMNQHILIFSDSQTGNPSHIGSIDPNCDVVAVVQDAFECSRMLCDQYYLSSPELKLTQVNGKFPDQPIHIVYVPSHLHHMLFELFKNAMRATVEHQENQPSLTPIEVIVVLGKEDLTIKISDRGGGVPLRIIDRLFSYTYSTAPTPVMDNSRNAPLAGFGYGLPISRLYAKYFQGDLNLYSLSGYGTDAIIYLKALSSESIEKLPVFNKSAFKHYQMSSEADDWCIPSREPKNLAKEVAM
# Procedure: as §1
# [5] = target: T5, ABL1 (Homo sapiens, UniProt P00519)
# T5 construct: purchased in-house DSF panel (SGC Frankfurt)
# T5 sequence (P00519 229-500): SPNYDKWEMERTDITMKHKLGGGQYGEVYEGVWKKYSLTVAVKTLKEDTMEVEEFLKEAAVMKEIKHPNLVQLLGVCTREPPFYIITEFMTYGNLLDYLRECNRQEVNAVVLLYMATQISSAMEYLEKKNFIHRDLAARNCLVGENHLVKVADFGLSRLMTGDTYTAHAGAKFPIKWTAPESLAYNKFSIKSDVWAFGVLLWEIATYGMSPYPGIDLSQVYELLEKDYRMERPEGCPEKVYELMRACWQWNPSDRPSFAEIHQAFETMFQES
# Procedure: as §1
# [6] = target: T6, PAK4 (Homo sapiens, UniProt O96013)
# T6 construct: purchased in-house DSF panel (SGC Frankfurt)
# T6 sequence (O96013 291-591): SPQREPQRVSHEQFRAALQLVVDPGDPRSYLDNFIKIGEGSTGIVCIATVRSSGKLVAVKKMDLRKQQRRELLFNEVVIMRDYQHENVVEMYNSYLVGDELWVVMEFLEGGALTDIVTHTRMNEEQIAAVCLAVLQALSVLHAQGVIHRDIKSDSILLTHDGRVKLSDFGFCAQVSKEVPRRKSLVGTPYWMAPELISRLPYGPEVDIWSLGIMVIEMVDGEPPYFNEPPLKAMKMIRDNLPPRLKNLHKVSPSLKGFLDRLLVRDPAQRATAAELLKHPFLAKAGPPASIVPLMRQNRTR
# Procedure: as §1
# [7] = target: T7, BMX (Homo sapiens, UniProt P51813)
# T7 construct: purchased in-house DSF panel (SGC Frankfurt)
# T7 sequence (P51813 411-675): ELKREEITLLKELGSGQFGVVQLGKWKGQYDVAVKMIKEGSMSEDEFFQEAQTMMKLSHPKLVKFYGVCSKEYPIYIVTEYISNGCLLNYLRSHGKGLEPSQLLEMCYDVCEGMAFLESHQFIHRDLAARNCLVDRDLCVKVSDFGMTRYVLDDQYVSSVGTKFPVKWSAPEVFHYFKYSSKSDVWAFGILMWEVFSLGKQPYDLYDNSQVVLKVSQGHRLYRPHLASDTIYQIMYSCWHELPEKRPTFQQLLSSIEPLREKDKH
# Procedure: as §1
# [8] = target: T8, CASK (Homo sapiens, UniProt O14936)
# T8 construct: purchased in-house DSF panel (SGC Frankfurt)
# T8 sequence (O14936 1-337): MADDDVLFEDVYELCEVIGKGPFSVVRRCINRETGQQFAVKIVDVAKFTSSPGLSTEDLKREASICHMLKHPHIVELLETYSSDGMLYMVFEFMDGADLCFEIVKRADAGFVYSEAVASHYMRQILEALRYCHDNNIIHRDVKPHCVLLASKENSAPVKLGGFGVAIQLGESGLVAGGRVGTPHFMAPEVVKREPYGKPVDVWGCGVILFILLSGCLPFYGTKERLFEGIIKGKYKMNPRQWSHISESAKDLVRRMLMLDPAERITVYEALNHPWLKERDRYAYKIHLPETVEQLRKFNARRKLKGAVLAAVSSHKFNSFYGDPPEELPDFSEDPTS
# Procedure: as §1
# [9] = target: T9, CHEK2 (Homo sapiens, UniProt O96017)
# T9 construct: purchased in-house DSF panel (SGC Frankfurt)
# T9 sequence (O96017 210-531): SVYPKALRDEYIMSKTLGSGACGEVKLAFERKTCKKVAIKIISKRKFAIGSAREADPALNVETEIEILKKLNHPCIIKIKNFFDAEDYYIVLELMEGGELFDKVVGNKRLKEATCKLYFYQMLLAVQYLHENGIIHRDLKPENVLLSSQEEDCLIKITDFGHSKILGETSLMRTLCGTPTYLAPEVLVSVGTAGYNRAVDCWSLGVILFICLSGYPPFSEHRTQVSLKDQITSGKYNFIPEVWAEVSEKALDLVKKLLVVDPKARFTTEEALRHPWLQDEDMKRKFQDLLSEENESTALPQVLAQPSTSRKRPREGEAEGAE
# Procedure: as §1
# [10] = target: T10, RIOK1 (Homo sapiens, UniProt Q9BRS2)
# T10 construct: purchased in-house DSF panel (SGC Frankfurt)
# T10 sequence (Q9BRS2 143-494): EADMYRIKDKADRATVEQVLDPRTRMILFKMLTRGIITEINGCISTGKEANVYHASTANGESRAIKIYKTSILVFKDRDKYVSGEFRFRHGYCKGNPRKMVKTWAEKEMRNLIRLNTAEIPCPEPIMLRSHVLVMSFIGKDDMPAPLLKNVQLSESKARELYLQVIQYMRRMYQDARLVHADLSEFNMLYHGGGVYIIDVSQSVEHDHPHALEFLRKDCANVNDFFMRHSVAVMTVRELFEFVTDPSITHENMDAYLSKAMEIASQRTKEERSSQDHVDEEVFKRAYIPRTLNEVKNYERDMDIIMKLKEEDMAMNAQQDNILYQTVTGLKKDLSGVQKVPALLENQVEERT
# Procedure: as §1
# [11] = target: T11, MAPK1 (Homo sapiens, UniProt P28482)
# T11 construct: purchased in-house DSF panel (SGC Frankfurt)
# T11 sequence (P28482 whole entry): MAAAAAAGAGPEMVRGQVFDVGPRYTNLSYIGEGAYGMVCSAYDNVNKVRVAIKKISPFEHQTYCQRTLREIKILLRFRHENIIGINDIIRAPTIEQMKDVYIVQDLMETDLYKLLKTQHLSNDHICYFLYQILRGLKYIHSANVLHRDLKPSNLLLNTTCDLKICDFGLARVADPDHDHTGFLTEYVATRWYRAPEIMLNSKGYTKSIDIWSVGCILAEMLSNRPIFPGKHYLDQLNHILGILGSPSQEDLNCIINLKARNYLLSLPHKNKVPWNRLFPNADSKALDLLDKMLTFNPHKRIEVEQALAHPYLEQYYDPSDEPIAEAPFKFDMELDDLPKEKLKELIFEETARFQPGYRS
# Procedure: as §1
# [12] = target: T12, FGFR1 (Homo sapiens, UniProt P11362)
# T12 construct: purchased in-house DSF panel (SGC Frankfurt)
# T12 sequence (P11362 456-765): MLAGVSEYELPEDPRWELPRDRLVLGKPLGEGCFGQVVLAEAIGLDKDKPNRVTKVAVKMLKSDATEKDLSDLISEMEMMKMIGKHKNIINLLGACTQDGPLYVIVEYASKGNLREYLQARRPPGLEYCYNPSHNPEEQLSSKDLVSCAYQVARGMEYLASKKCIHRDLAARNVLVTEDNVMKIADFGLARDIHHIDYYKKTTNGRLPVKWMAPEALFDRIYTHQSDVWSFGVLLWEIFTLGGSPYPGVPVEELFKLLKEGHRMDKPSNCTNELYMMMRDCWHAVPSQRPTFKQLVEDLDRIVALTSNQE
# Procedure: as §1
# [13] = target: T13, FES (Homo sapiens, UniProt P07332)
# T13 construct: purchased in-house DSF panel (SGC Frankfurt)
# T13 sequence (P07332 whole entry): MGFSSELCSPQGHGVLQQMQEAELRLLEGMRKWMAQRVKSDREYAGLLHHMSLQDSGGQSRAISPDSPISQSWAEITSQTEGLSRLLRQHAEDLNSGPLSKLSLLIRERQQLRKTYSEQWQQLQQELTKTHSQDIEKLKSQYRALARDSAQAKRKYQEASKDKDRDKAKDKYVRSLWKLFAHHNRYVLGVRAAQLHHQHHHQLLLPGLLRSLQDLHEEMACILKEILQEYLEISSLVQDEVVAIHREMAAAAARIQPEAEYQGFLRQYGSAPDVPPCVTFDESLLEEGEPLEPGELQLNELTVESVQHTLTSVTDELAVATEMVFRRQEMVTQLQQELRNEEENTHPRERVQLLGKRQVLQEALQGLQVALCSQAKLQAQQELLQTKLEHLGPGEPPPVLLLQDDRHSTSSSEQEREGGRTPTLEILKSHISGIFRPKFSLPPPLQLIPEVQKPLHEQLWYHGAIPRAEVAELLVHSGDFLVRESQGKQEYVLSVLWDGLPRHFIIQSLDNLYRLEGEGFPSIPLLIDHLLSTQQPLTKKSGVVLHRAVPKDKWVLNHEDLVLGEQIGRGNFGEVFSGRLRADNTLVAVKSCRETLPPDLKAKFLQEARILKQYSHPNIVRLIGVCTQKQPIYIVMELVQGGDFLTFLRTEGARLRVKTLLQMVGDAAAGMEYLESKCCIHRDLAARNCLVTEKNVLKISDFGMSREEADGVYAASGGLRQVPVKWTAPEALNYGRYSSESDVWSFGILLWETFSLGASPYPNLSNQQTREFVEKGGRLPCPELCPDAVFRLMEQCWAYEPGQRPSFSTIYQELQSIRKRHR
# Procedure: as §1
# [14] = target: T14, CDKL1 (Homo sapiens, UniProt Q00532)
# T14 construct: purchased in-house DSF panel (SGC Frankfurt)
# T14 sequence (Q00532 1-303): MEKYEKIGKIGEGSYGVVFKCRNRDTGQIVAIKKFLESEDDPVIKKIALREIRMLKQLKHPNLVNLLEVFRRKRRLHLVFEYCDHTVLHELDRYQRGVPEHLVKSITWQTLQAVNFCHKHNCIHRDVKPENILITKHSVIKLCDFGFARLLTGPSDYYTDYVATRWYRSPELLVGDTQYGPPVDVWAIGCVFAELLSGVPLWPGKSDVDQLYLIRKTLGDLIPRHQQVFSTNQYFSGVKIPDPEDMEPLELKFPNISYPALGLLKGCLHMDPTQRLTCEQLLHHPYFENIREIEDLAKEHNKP
# Procedure: as §1
SMILES,ΔTm GAK [1],ΔTm CAMK1G [2],ΔTm PHKG2 [3],ΔTm PDK4 [4],ΔTm ABL1 [5],ΔTm PAK4 [6],ΔTm BMX [7],ΔTm CASK [8],ΔTm CHEK2 [9],ΔTm RIOK1 [10],ΔTm MAPK1 [11],ΔTm FGFR1 [12],ΔTm FES [13],ΔTm CDKL1 [14]
"COC(=O)c1cc(Nc2ccnc(NCCOCCNC(=O)OC(C)(C)C)n2)[nH]n1 [21d, methyl 5-((2-((2-(2-((tert-butoxycarbonyl)amino)ethoxy)ethyl)amino)pyrimidin-4-yl)amino)-1H-pyrazole-3-carboxylate]",2.1 °C,0.4 °C,0.5 °C,1.8 °C,1.2 °C,1.0 °C,0.2 °C,0.4 °C,2.5 °C,0.1 °C,0.3 °C,0.5 °C,1.5 °C,0.1 °C
"COC(=O)c1cc(Nc2ccnc(NCc3ccc(NC(=O)OC(C)(C)C)cc3)n2)[nH]n1 [21i, methyl 5-((2-((4-((tert-butoxycarbonyl)amino)benzyl)amino)pyrimidin-4-yl)amino)-1H-pyrazole-3-carboxylate]",1.3 °C,0.4 °C,-0.3 °C,0.9 °C,0.7 °C,0.2 °C,-0.1 °C,0.2 °C,0.6 °C,0.8 °C,0.7 °C,0.0 °C,0.0 °C,0.5 °C
"CC(C)OC(=O)c1cc(Nc2ccnc(NCc3ccc(NC(=O)OC(C)(C)C)cc3)n2)n[nH]1 [42d, isopropyl 3-((2-((4-((tert-butoxycarbonyl)amino)benzyl)amino)pyrimidin-4-yl)amino)-1H-pyrazole-5-carboxylate]",-0.9 °C,-0.2 °C,-0.2 °C,,1.0 °C,-0.2 °C,-0.1 °C,0.4 °C,0.6 °C,,-0.1 °C,0.4 °C,0.1 °C,1.7 °C
"CC(C)(C)OC(=O)Nc1ccc(CNc2nccc(Nc3cc(C(=O)OC(C)(C)C)[nH]n3)n2)cc1 [43d, tert-butyl 3-((2-((4-((tert-butoxycarbonyl)amino)benzyl)amino)pyrimidin-4-yl)amino)-1H-pyrazole-5-carboxylate]",-4.1 °C,-0.7 °C,0.5 °C,,1.6 °C,-0.9 °C,-0.4 °C,0.4 °C,1.3 °C,,0.0 °C,0.6 °C,1.1 °C,2.1 °C
"N#CCc1ccc(Nc2nccc(Nc3cc(C4CC4)[nH]n3)n2)cc1 [compound 1, reference compound]",8.0 °C,5.5 °C,8.8 °C,1.2 °C,8.7 °C,7.7 °C,4.4 °C,2.0 °C,8.6 °C,4.9 °C,8.5 °C,4.5 °C,4.5 °C,6.8 °C
